Results from patent publication US5196418A, “Hemicholinium lipids and use thereof” (Board of Supervisors, Louisiana State University …, priority 1992, dated 1993).

What was measured:
cell-cell aggregation = assay: Inhibition of cell-cell aggregation (method of Fritz et al.); format: cell-based
Source text: Cell-cell aggregation studies by the method of Fritz et al., J. CeII.

CPT-II [1] = molecular target: T1, CPT-II (Bos taurus, UniProt Q2KJB7); assay: CPT inhibition (spectrophotometric assay, CPT-II prepared from beef liver); format: biochemical; settings: CPT-II from beef liver, 10 μM decanoyl-CoA, L-carnitine 1 mM and 5 mM, pH 7.4, 30° C.
T1 construct: CPT-II was prepared from beef liver; from tissue; host or cells: beef liver
T1 sequence (Q2KJB7 26-658): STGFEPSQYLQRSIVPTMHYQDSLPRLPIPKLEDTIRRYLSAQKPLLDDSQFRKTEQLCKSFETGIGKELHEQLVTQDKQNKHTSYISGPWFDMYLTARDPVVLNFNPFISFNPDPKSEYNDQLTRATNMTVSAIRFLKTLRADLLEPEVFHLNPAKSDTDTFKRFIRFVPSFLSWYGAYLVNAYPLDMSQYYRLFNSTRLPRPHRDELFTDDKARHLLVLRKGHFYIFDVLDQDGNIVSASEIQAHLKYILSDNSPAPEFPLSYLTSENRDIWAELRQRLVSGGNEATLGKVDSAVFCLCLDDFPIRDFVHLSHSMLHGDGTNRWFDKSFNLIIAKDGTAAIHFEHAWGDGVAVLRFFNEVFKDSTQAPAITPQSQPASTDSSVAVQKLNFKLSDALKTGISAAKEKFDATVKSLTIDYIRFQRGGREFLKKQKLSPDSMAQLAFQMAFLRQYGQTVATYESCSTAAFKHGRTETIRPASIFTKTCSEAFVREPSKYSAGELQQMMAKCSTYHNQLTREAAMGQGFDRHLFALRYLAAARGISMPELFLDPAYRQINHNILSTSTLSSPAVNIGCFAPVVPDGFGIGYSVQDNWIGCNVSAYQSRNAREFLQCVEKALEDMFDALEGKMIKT
Method: (§1) Preparation: CPT-II was prepared from beef liver using the methods of P. R. H. Clarke and L. L. Bieber (1981) J. Biol. Chem., 256. 9861-9868.
(§2) In final volume of 1 ml, 20 mm KPO4^-, pH 7.4 at 30° C., 125 μM aldrithiol [4,4-dithio(bis)pyridine], 10 μM decanoyl-CoA, 10 μl enzyme (1.25 μg/ml) and inhibitor were preincubated at 30° C. for 1 min. and the reaction was initiated with L-carnitine. The absorbance change at 324 nm, followed in a spectrophotometer, was linear with time. L-carnitine conc. were 1 mM and 5 mM. H15C conc. ranged from 1.25 μM-12.5 μM (6values).

CPT-II [2] = assay: as above; format: biochemical; settings: Ki 2 μM versus 10.4 μM
Method: as §1, §2

CCCCCCCCCCCCCCCCC1(O)C[N+](C)(C)CCO1 (racemic) [Example 3, 2-Hexadecyl-2-hydroxy-4,4-dimethylmorpholinium Bromide]
Ki (cell-cell aggregation): 400 nM

CCCCCCCCCCCCCCCC(=O)C[N+](C)(C)CCCO [Example 9, N-(3-Hydroxypropyl)-N,N-dimethyl-N-(2-oxoheptadecyl)ammonium Bromide]
Ki (cell-cell aggregation): 750 nM

CCCCCCCCCCCCC1(O)C[N+](C)(C)CCO1 (racemic) [Example 7, 2-Dodecyl-2-hydroxy-4,4-dimethylmorpholinium Bromide]
Ki (cell-cell aggregation): 12000 nM

CCCCCCCCCCCCCCC1(O)C[N+](C)(C)CCO1 (racemic) [Example 5, 2-Hydroxy-4,4-dimethyl-2,-tetradecylmorpholinium Bromide]
Ki (cell-cell aggregation): 1500 nM

CCCCCCCCCCCCCCCC1(O)C[N+](C)(C)CCO1.[Br-] (stereo not shown) [Example 4, 2Hydroxy-4,4-dimethyl-2-pentadecylmorpholinium Bromide]
Ki (CPT-II [1]): 2000 nM | binding strength relative to palmitoylcholine (from Ki against CPT) (CPT-II [2]): five-fold stronger binding | Ki (cell-cell aggregation): 400 nM
